Laboratory results published in patent publication US20050239806A1, “Pyrrolopyrimidine derivatives and analogs and their use in the treatment and prevention of diseases” (Ambit Biosciences Corporation, priority 2004, published 2005).

Experiments:
[1] = molecular target: T1, human EGFR (wildtype), EGFR(DKIN) (Homo sapiens, UniProt P00533); test: Binding of wildtype-EGFR (T7 phage-displayed kinase competition binding)
T1 construct: Kd for EGFR(DKIN); made in house
From the text: Methods for measuring binding affinities for interactions between small molecules and kinases including FLT3, c-KIT, ABL([…]) [a.k.a. ABL([…])], VEGFR-2 (a.k.a. KDR), and EGFR are described in detail in U.S. application Ser. No. 10/873,835, which is incorporated by reference herein in its entirety. The components of the assays include human kinases expressed as fusions to T7 bacteriophage particles and immobilized ligands that bind to the ATP site of the kinases. […] If the test compound binds the kinase it competes with the immobilized ligand and prevents binding to the solid support. […] The results are read out by quantitating the amount of fusion protein bound to the solid support, which is accomplished by either traditional phage plaque assays or by quantitative PCR (qPCR) using the phage genome as a template. […] The concentration of test molecule that reduces the number of phage bound to the solid support by 50% is equal to the Kd for the interaction between the kinase and the test molecule. Typically, data are collected for twelve concentrations of test compound and, the resultant binding curve is fit to a non-cooperative binding isotherm to calculate Kd. Described in the exemplary assays below is data from binding with varying kinases. […] The term “ND” represents non-determined values. […] The Kd for the interaction between the soluble compound (competitor) molecule and EGFR is equal to the concentration of soluble competitor molecule that causes a 50% reduction in the number of phage recovered in the eluate compared to a control sample lacking soluble competitor.

[2] = molecular target: T2, EGFR (tyrosine 1173 phosphorylation) in A431 cells (Homo sapiens, UniProt P00533); test: EGFR Autophosphorylation Inhibition Assay in Epidermoid Carcinoma Cell Line A431; type: cell-based; settings: EGF-induced phosphorylation of tyrosine 1173
T2 construct: endogenous in cells; host or cells: A431
T2 sequence (P00533 25-1210): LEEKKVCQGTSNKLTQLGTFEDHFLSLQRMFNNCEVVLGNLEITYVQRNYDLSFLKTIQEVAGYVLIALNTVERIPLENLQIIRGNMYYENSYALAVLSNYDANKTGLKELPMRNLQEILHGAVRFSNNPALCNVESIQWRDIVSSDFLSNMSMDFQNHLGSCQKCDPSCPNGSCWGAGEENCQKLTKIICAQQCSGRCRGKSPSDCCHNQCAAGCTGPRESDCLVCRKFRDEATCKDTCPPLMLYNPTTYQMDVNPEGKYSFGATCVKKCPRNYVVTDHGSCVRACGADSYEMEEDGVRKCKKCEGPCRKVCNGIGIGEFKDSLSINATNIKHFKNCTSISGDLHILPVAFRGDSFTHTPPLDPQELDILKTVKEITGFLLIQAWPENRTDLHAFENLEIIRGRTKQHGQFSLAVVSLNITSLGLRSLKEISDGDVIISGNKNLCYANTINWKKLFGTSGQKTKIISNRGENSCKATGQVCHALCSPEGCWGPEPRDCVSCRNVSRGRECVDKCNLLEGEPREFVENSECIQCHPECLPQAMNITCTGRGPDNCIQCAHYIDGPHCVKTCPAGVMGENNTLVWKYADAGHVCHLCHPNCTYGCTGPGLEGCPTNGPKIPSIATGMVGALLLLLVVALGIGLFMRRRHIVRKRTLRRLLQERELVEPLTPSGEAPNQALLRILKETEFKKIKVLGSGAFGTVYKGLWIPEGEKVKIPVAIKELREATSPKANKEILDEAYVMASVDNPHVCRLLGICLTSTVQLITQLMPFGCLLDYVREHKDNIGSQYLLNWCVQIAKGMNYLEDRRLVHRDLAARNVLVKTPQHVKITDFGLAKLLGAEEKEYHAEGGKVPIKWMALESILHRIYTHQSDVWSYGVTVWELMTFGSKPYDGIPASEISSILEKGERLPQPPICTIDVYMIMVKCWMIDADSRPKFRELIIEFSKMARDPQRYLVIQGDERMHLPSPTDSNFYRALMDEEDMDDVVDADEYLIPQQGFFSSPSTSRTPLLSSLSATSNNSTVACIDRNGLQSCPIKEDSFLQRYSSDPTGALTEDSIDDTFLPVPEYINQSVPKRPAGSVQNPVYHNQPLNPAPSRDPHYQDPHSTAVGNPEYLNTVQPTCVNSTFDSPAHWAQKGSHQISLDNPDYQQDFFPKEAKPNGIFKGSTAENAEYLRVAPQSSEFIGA
Experimental: (§1) Tyrosine 1173 is a major autophosphorylation site resulting from activation of EGFR by epidermal growth factor (EGF). To determine the capacity of a compound to inhibit this phosphorylation activity of EGFR upon itself, the following methodology was used: 4×10^4 A431 cells/well in a 96-well culture plate or 3.6×10^5 A549 cells/well in a 24-well culture plate were cultured overnight at 37° C. in 5% CO2 in low serum culture medium (DMEM supplemented with 0.5% fetal calf serum, 4.500 mg/L glucose and 100 units/ml penicillin-streptomycin). After 16 hours, the cells were pre-incubated in eight serial 3-fold dilutions of test compound (3.3 μM-0.0017 μM) in addition to vehicle control (final concentration on DMSO vehicle was 1%) for two hours. Cells were stimulated by the addition of 5 ng/ml of EGF for five minutes. Cells were then washed with cold phosphate buffered saline (PBS), and incubated for 30 minutes at 4° C. in lysis buffer. Subsequently, the samples were centrifuged at 6000× RCF for 15 minutes, and the level of phosphorylation of EGFR tyrosine 1173 was measured using a sandwich enzyme-linked immunosorbent assay following the manufacturer's recommended protocols (Biosource, Camarillo, Calif.). Total EGFR levels were also measured in the same manner to control for protein level differences. The reported values are those concentrations of compound required to inhibit EGF-induced phosphorylation of tyrosine 1173 by 50%.

[3] = molecular target: T3, EGFR (tyrosine 1173 phosphorylation) in Lung Cancer Cell Line A459 (Homo sapiens, UniProt P00533); test: EGFR Autophosphorylation Inhibition Assay in Lung Cancer Cell Line A459; type: cell-based; settings: EGF-induced phosphorylation of tyrosine 1173
T3 construct: endogenous in cells
T3 sequence (P00533 25-1210): as above
Experimental: as §1

T1 sequence (P00533 712-979 limits assumed): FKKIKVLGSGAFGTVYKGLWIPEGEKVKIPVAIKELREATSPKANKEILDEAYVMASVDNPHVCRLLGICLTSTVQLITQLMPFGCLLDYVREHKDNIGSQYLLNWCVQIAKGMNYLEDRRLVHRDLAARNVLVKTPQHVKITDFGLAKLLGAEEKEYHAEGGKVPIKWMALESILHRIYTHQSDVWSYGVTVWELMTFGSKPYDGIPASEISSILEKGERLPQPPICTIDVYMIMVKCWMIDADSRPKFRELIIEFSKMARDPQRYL

| Kd [1] [nM] | IC50 [2] [nM] | IC50 [3] [nM] | Compound |
| --- | --- | --- | --- |
| > 10000 |  |  | COc1ccc(-c2cc3c(OCc4cccc(C)c4)ncnc3[nH]2)cc1 [Compound C3] |
| 100 to 1000 |  |  | COc1ccc(-c2cc3c(OCc4ccccc4)ncnc3[nH]2)cc1 [Compound C4] |
| 100 to 1000 |  |  | COc1ccc(-c2cc3c(Oc4cccc(Br)c4)ncnc3[nH]2)cc1 [Compound D3] |
| < 100 | 100 to 1000 |  | COc1ccc(-c2cc3c(Oc4cccc(Cl)c4)ncnc3[nH]2)cc1 [Compound D5] |
| < 100 |  |  | COc1ccc(-c2cc3c(Oc4cccc(C)c4)ncnc3[nH]2)cc1 [Compound D8] |
| 100 to 1000 |  |  | COc1cccc(-c2cc3c(Oc4cc(C)cc(C)c4)ncnc3[nH]2)c1 [Compound D18] |
| < 100 | 100 to 1000 | 1000 to 10000 | COc1cccc(-c2cc3c(Oc4cccc(Br)c4)ncnc3[nH]2)c1 [Compound D19] |
| 100 to 1000 |  |  | COc1cccc(-c2cc3c(Oc4cccc(F)c4)ncnc3[nH]2)c1 [Compound D20] |
| 100 to 1000 |  |  | COc1cccc(-c2cc3c(Oc4cccc(C(F)(F)F)c4)ncnc3[nH]2)c1 [Compound D21] |
| 100 to 1000 | 100 to 1000 |  | Oc1ccc(-c2cc3c(Oc4cc(Cl)cc(Cl)c4)ncnc3[nH]2)cc1 [Compound E1, 4-[4-(3,5-Dichloro-phenoxy)-7H-pyrrolo[2,3-d]pyrimidin-6-yl]-phenol] |
| < 100 |  |  | Cc1cc(C)cc(Oc2ncnc3[nH]c(-c4ccc(O)cc4)cc23)c1 [Compound E2] |
| 100 to 1000 |  |  | COc1cccc(Oc2ncnc3[nH]c(-c4ccc(O)cc4)cc23)c1 [Compound E4] |
| 100 to 1000 |  |  | Clc1ccc(Sc2ncnc3[nH]ccc23)cc1Cl [Compound F3] |
| 100 to 1000 |  |  | COc1ccc(-c2cc3c(Sc4ccc(Cl)c(Cl)c4)ncnc3[nH]2)cc1 [Compound J3] |
| < 100 | 1000 to 10000 | 1000 to 10000 | COc1ccc(-c2cc3c(Sc4cccc(Cl)c4)ncnc3[nH]2)cc1 [Compound J7] |
| < 100 | 1000 to 10000 | 1000 to 10000 | COc1ccc(-c2cc3c(Sc4cccc(F)c4)ncnc3[nH]2)cc1 [Compound J8] |
| 100 to 1000 |  |  | COc1ccc(-c2cc3c(Sc4cccc(OC)c4)ncnc3[nH]2)cc1 [Compound J9] |
| 100 to 1000 |  |  | COc1ccc(-c2cc3c(Sc4cccc(C)c4)ncnc3[nH]2)cc1 [Compound J10] |
| 100 to 1000 |  |  | COc1ccc(-c2cc3c(Sc4cccc(C(F)(F)F)c4)ncnc3[nH]2)cc1 [Compound J11] |

| Kd [1] [nM] | IC50 [2] [nM] | IC50 [3] [nM] | Compound |
| --- | --- | --- | --- |
| < 100 | 1000 to 10000 |  | COc1ccc(-c2cc3c(Sc4ccc(F)cc4)ncnc3[nH]2)cc1 [Compound J13] |
| < 100 | 1000 to 10000 | 1000 to 10000 | COc1ccc(-c2cc3c(Sc4ccc(C)cc4)ncnc3[nH]2)cc1 [Compound J14] |
| 100 to 1000 |  |  | COc1ccc(-c2cc3c(Sc4ccccc4)ncnc3[nH]2)cc1 [Compound J16] |
| 100 to 1000 |  |  | Cc1ccc(-c2cc3c(Sc4cccc(F)c4)ncnc3[nH]2)cc1 [Compound J17] |
| 100 to 1000 |  |  | Cc1cc(C)cc(Sc2ncnc3[nH]c(-c4ccc(O)cc4)cc23)c1 [Compound J18] |
| < 100 | 1000 to 10000 | 1000 to 10000 | COc1cccc(-c2cc3c(Sc4ccccc4Cl)ncnc3[nH]2)c1 [Compound J19] |
| < 100 | 1000 to 10000 |  | CCc1ccccc1Sc1ncnc2[nH]c(-c3cccc(OC)c3)cc12 [Compound J20] |
| > 10000 |  |  | COc1cccc(-c2cc3c(Sc4cc(Cl)cc(Cl)c4)ncnc3[nH]2)c1 [Compound J21] |
| 100 to 1000 |  |  | COc1cccc(-c2cc3c(Sc4cc(C)cc(C)c4)ncnc3[nH]2)c1 [Compound J22] |
| < 100 | 100 to 1000 | 100 to 1000 | COc1cccc(-c2cc3c(Sc4cccc(Br)c4)ncnc3[nH]2)c1 [Compound J23] |
| < 100 | 100 to 1000 | 100 to 1000 | COc1cccc(-c2cc3c(Sc4cccc(Cl)c4)ncnc3[nH]2)c1 [Compound J24] |
| < 100 | 100 to 1000 | 1000 to 10000 | COc1cccc(-c2cc3c(Sc4cccc(F)c4)ncnc3[nH]2)c1 [Compound J25] |
| 100 to 1000 |  |  | COc1cccc(Sc2ncnc3[nH]c(-c4cccc(OC)c4)cc23)c1 [Compound J26] |
| 100 to 1000 | 100 to 1000 | 1000 to 10000 | COc1cccc(-c2cc3c(Sc4cccc(C)c4)ncnc3[nH]2)c1 [Compound J27] |
| < 100 | 1000 to 10000 |  | COc1cccc(-c2cc3c(Sc4cccc(C(F)(F)F)c4)ncnc3[nH]2)c1 [Compound J28] |
| < 100 | 1000 to 10000 | 1000 to 10000 | COc1cccc(-c2cc3c(Sc4ccc(F)cc4)ncnc3[nH]2)c1 [Compound J30] |
| < 100 | 1000 to 10000 | > 10000 | COc1cccc(-c2cc3c(Sc4ccc(C)cc4)ncnc3[nH]2)c1 [Compound J31] |
| 1000 to 10000 |  |  | COc1cccc(-c2cc3c(Sc4ccc(C(C)(C)C)cc4)ncnc3[nH]2)c1 [Compound J32] |
| < 100 | 100 to 1000 | 1000 to 10000 | COc1cccc(-c2cc3c(Sc4ccccc4)ncnc3[nH]2)c1 [Compound J33] |

| Kd [1] [nM] | IC50 [2] [nM] | IC50 [3] [nM] | Compound |
| --- | --- | --- | --- |
| < 100 | 100 to 1000 |  | COc1ccc(-c2cc3c(Sc4ccc(F)c(Cl)c4)ncnc3[nH]2)cc1 [Compound J37] |
| < 100 | 100 to 1000 |  | Brc1cccc(Sc2ncnc3c2[nH]c2ccccc23)c1 [Compound K8] |
| < 100 | 100 to 1000 | 100 to 1000 | Clc1cccc(Sc2ncnc3c2[nH]c2ccccc23)c1 [Compound K10] |
| 100 to 1000 |  |  | Cc1cccc(Sc2ncnc3c2[nH]c2ccccc23)c1 [Compound K12] |
| < 100 | 100 to 1000 |  | Clc1ccc(Sc2ncnc3c2[nH]c2ccccc23)cc1 [Compound K13] |
| < 100 | 100 to 1000 | 100 to 1000 | Fc1ccc(Sc2ncnc3c2[nH]c2ccccc23)cc1 [Compound K14] |
| < 100 | 100 to 1000 |  | Cc1ccc(Sc2ncnc3c2[nH]c2ccccc23)cc1 [Compound K15] |
| < 100 |  |  | c1ccc(Sc2ncnc3c2[nH]c2ccccc23)cc1 [Compound K17] |
| 1000 to 10000 |  |  | Oc1ccc(-c2cc3c(SCCc4ccccc4)ncnc3[nH]2)cc1 [Compound L1, 4-(4-Phenethylsulfanyl-7H-pyrrolo[2,3-d]pyrimidin-6-yl)-phenol] |
| < 100 | < 100 | 1000 to 10000 | Oc1ccc(-c2cc3c(Sc4cccc(F)c4)ncnc3[nH]2)cc1 [Compound L3] |
| 100 to 1000 |  |  | COc1cccc(Sc2ncnc3[nH]c(-c4ccc(O)cc4)cc23)c1 [Compound L4] |
| < 100 | < 100 | 1000 to 10000 | Cc1cccc(Sc2ncnc3[nH]c(-c4ccc(O)cc4)cc23)c1 [Compound L5] |
| < 100 | 100 to 1000 | 1000 to 10000 | Oc1ccc(-c2cc3c(Sc4ccc(Cl)cc4)ncnc3[nH]2)cc1 [Compound L7] |
| < 100 | < 100 | 1000 to 10000 | Oc1ccc(-c2cc3c(Sc4ccc(F)cc4)ncnc3[nH]2)cc1 [Compound L8] |
| < 100 | 100 to 1000 | 1000 to 10000 | Cc1ccc(Sc2ncnc3[nH]c(-c4ccc(O)cc4)cc23)cc1 [Compound L9] |
| 100 to 1000 |  |  | COc1ccc(Sc2ncnc3[nH]c(-c4ccc(O)cc4)cc23)cc1 [Compound L11] |
| 100 to 1000 |  |  | Oc1cccc(Sc2ncnc3oc(-c4ccccc4)c(-c4ccccc4)c23)c1 [Compound N4] |
| 100 to 1000 |  |  | COc1cccc(Sc2ncnc3oc(-c4ccccc4)c(-c4ccccc4)c23)c1 [Compound N12] |
